# Experimental data as given in US8242151B2, “Tricyclic compounds” (Kyowa Hakko Kirin Co., Ltd., priority 2007, dated 2012).
# Molecular target: T1, GAL4-PPARγ chimeric nuclear receptor (human PPARγ ligand binding region) (Homo sapiens, UniProt P37231)
# T1 construct: expressed in transfected cells; host or cells: HEK293EBNA cells
# T1 sequence (P37231 174-475 isoform P37231-2): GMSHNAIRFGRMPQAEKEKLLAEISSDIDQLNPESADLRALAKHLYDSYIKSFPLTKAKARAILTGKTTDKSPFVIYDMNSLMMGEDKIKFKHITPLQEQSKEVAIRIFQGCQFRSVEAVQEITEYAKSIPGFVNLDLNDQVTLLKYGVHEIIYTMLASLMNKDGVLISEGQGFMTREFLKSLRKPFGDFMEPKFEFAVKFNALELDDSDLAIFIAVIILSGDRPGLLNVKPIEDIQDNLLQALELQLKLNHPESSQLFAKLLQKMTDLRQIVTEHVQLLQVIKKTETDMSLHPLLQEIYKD
# Assay: Transactivation assay of PPARγ by transient gene transfer (GAL4-PPARγ luciferase reporter)
# Type: cell-based
# Conditions: HEK293EBNA cells, 24 hr; concentration showing 50% of efficacy; activity relative to pioglitazone 10 μmol/L = 100%
# Procedure: The agonist activity of compound (I) to PPARγ was determined by a transactivation assay method using a chimeric nuclear receptor of a DNA binding region of a yeast transcription factor GAL4 and a PPARγ ligand binding region. Specifically, the PPARγ agonist activity of compound (I) was evaluated by the following method based on the method of Lehmann et al. (J Biol. Chem., 1995, vol. 270, page 12953).
# HEK293EBNA cells cultured in Dulbecco's Modified Eagle medium (Invitrogen) containing 10 v/v % fetal calf serum (Invitrogen) were used. 30 mL of the above-mentioned cells (density: 1×10^5 cells/mL) were inoculated in a […] culture dish (Iwaki Glass), and cultured overnight. Using SuperFect Transfection Reagent (QIAGEN), a plasmid expressing a GAL4-PPARγ chimeric nuclear receptor fusing 174-475 amino acids, which are human PPARγ ligand binding region, and 1-147 amino acids, which are GAL4 DNA binding region, and a reporter plasmid expressing a GAL4 responsive luciferase were transiently introduced into the cells at a proportion of 4:1. After 5 hr from gene introduction, the cells were detached from the culture dish, and the detached cells (density: 2×10^4 cells/mL) were inoculated by 100 μL in each well of a 96 well white plate (SUMITOMO BAKELITE), and cultured overnight. The medium was removed, compound (I) diluted in various concentrations with serum-free Dulbecco's Modified Eagle medium was added by 100 μL, and the mixture was reacted under a 5% carbon dioxide gas stream (5% CO2) at 37° C. for 24 hr. On the other hand, as a positive control, 10 μmol/L of pioglitazone (100 μL) was added, and the mixture was reacted under a 5% carbon dioxide gas stream (5% CO2) at 37° C. for 24 hr. As a substrate of luciferase, 100 μL of Steady-Glo (Promega) was added to each well and the mixture was thoroughly stirred. Immediately thereafter, the chemical luminescence due to luciferase was measured using TopCount NTX (Packard).
# The agonist activity (activity rate (%)) of compound (I) to PPARγ was calculated according to the following formula, as a relative activity when the agonist activity on addition of pioglitazone (10 μmol/L) was 100%.
row,EC50 [µM],SMILES
1,0.251,"CCc1nc2c(C)cc(C)nc2n1Cc1ccc2c(c1)CCc1ccccc1/C2=C(\C)c1nn[nH]n1 [Compound 62, (Z)-2-(2-ethyl-5,7-dimethyl-3H-imidazo[4,5-b]pyridin-3-yl)methyl-5-[1-(1H-tetrazol-5-yl)ethylidene]-10,11-dihydro-5H-dibenzo[a,d]cycloheptene]"
2,1.13,"C/C(=C1/c2ccccc2COc2cc(Cn3c(C4CC4)nc4c(C)cc(C)nc43)ccc21)c1noc(=O)[nH]1 [Compound 112, (E)-3-(2-cyclopropyl-5,7-dimethyl-3H-imidazo[4,5-b]pyridin-3-yl)methyl-11-[1-(5-oxo-4,5-dihydro-1,2,4-oxadiazol-3-yl)ethylidene]-6,11-dihydrodibenzo[b,e]oxepine]"
3,1.25,"CCc1nc2c(C)cc(C)nc2n1Cc1ccc2c(c1)CCc1ccccc1C2=CC#N [Compound S15, [2-(2-ethyl-5,7-dimethyl-3H-imidazo[4,5-b]pyridin-3-yl)methyl-10,11-dihydro-5H-dibenzo[a,d]cyclohepten-5-ylidene]acetonitrile]"
4,0.342,"CCCc1nc2c(C)cccc2n1Cc1ccc2c(c1)CCc1ccccc1/C2=C(/C)c1noc(=O)[nH]1 [Compound 83, (E)-2-(4-methyl-2-propylbenzimidazol-1-yl)methyl-5-[1-(5-oxo-4,5-dihydro-1,2,4-oxadiazol-3-yl)ethylidene]-10,11-dihydro-5H-dibenzo[a,d]cycloheptene]"
5,0.226,"C/C(=C1\c2ccc(Cn3c(C4CC4)nc4c(Cl)cccc43)cc2COc2ccccc21)c1noc(=O)[nH]1 [Compound 147, (Z)-8-(4-chloro-2-cyclopropylbenzimidazol-1-yl)methyl-11-[1-(5-oxo-4,5-dihydro-1,2,4-oxadiazol-3-yl)ethylidene]-6,11-dihydrodibenzo[b,e]oxepine]"
6,0.103,"CCCc1nc2c(C)cccc2n1Cc1ccc2c(c1)CCc1ccccc1/C2=C\c1noc(=O)[nH]1 [Compound 33, (E)-2-(4-methyl-2-propylbenzimidazol-1-yl)methyl-5-(5-oxo-4,5-dihydro-1,2,4-oxadiazol-3-yl)methylene-10,11-dihydro-5H-dibenzo[a,d]cycloheptene]"
7,0.073,"CCCc1nc2c(C)cccc2n1Cc1ccc2c(c1)CCc1ccccc1C2Cc1noc(=O)[nH]1 (stereo not drawn) [Compound 64, 2-(4-methyl-2-propylbenzimidazol-1-yl)methyl-5-(5-oxo-4,5-dihydro-1,2,4-oxadiazol-3-yl)methyl-10,11-dihydro-5H-dibenzo[a,d]cycloheptene]"
8,0.048,"CCCc1nc2c(C)cccc2n1Cc1ccc2c(c1)CCc1ccccc1N2C(C)c1noc(=O)[nH]1 (stereo not drawn) [Compound 18, 2-(4-methyl-2-propylbenzimidazol-1-yl)methyl-5-[1-(5-oxo-4,5-dihydro-1,2,4-oxadiazol-3-yl)ethyl]-10,11-dihydro-5H-dibenzo[b,f]azepine]"

# More lines, now with the values behind:
row,SMILES,EC50 [µM]
1,"CCc1nc2c(Cl)cc(C)nc2n1Cc1ccc2c(c1)CCc1ccccc1N2C(C)c1nnn[nH]1 (stereo not drawn) [Compound 25, 2-(7-chloro-2-ethyl-5-methyl-3H-imidazo[4,5-b]pyridin-3-yl)methyl-5-[1-(1H-tetrazol-5-yl)ethyl]-10,11-dihydro-5H-dibenzo[b,f]azepine]",0.233
2,"Cc1cc(C)c2nc(C3CC3)n(Cc3ccc4c(c3)CCc3ccccc3N4Cc3nnn[nH]3)c2n1 [Compound S14, 2-(2-cyclopropyl-5,7-dimethyl-3H-imidazo[4,5-b]pyridin-3-yl)methyl-5-(1H-tetrazol-5-yl)methyl-10,11-dihydro-5H-dibenzo[b,f]azepine]",4.13
3,"CCc1nc2c(C)cc(C)nc2n1Cc1ccc2c(c1)CCc1ccccc1/C2=C/c1nnn[nH]1 [Compound S17, (Z)-2-(2-ethyl-5,7-dimethyl-3H-imidazo[4,5-b]pyridin-3-yl)methyl-5-(1H-tetrazol-5-yl)methylene-10,11-dihydro-5H-dibenzo[a,d]cycloheptene]",1.29
4,"CCCc1nc2c(C)cccc2n1Cc1ccc2c(c1)CCc1ccccc1N2Cc1noc(=O)[nH]1 [Compound 6, 2-(4-methyl-2-propylbenzimidazol-1-yl)methyl-5-(5-oxo-4,5-dihydro-1,2,4-oxadiazol-3-yl)methyl-10,11-dihydro-5H-dibenzo[b,f]azepine]",0.097
5,"CCc1nc2c(Cl)cc(C)nc2n1Cc1ccc2c(c1)OCc1ccccc1/C2=C\c1noc(=O)[nH]1 [Compound 106, (E)-3-(7-chloro-2-ethyl-5-methyl-3H-imidazo[4,5-b]pyridin-3-yl)methyl-11-(5-oxo-4,5-dihydro-1,2,4-oxadiazol-3-yl)methylene-6,11-dihydrodibenzo[b,e]oxepine]",0.31
6,"CCc1nc2c(C(F)(F)F)cc(C)nc2n1Cc1ccc2c(c1)CCc1ccccc1/C2=C\c1noc(=O)[nH]1 [Compound 37, (E)-2-(2-ethyl-5-methyl-7-trifluoromethyl-3H-imidazo[4,5-b]pyridin-3-yl)methyl-5-(5-oxo-4,5-dihydro-1,2,4-oxadiazol-3-yl)methylene-10,11-dihydro-5H-dibenzo[a,d]cycloheptene]",0.415
7,"Cc1cc(C)c2nc(C3CC3)n(Cc3ccc4c(c3)CCc3ccccc3N4C(C)c3noc(=O)[nH]3)c2n1 (stereo not drawn) [Compound 70, 2-(2-cyclopropyl-5,7-dimethyl-3H-imidazo[4,5-b]pyridin-3-yl)methyl-5-[1-(5-oxo-4,5-dihydro-1,2,4-oxadiazol-3-yl)ethyl]-10,11-dihydro-5H-dibenzo[b,f]azepine]",0.053
8,"CCc1nc2c(C)cc(C)nc2n1Cc1ccc2c(c1)CCc1ccccc1/C2=C(/C)c1nnn[nH]1 [Compound 45, (E)-2-(2-ethyl-5,7-dimethyl-3H-imidazo[4,5-b]pyridin-3-yl)methyl-5-[1-(1H-tetrazol-5-yl)ethylidene]-10,11-dihydro-5H-dibenzo[a,d]cycloheptene]",1.09
9,"CCCc1nc(CC)c(C(=O)OCC)n1Cc1ccc2c(c1)CCc1ccccc1N2C(C)c1nnn[nH]1 (stereo not drawn) [Compound 28, 2-(5-ethoxycarbonyl-4-ethyl-2-propyl-1H-imidazol-1-yl)methyl-5-[1-(1H-tetrazol-5-yl)ethyl]-10,11-dihydro-5H-dibenzo[b,f]azepine]",0.325
10,"CCCc1nc2c(C(F)(F)F)cc(C)nc2n1Cc1ccc2c(c1)CCc1ccccc1/C2=C/c1noc(=O)[nH]1 [Compound 57, (Z)-2-(5-methyl-2-propyl-7-trifluoromethyl-3H-imidazo[4,5-b]pyridin-3-yl)methyl-5-(5-oxo-4,5-dihydro-1,2,4-oxadiazol-3-yl)methylene-10,11-dihydro-5H-dibenzo[a,d]cycloheptene]",0.44
11,"CCCc1nc2c(C)cccc2n1Cc1ccc2c(c1)CCc1ccccc1/C2=C/c1noc(=O)[nH]1 [Compound 51, (Z)-2-(4-methyl-2-propylbenzimidazol-1-yl)methyl-5-(5-oxo-4,5-dihydro-1,2,4-oxadiazol-3-yl)methylene-10,11-dihydro-5H-dibenzo[a,d]cycloheptene]",0.094
12,"CCOc1nc2cccnc2n1Cc1ccc2c(c1)CCc1ccccc1/C2=C(/C)c1noc(=O)[nH]1 [Compound 91, (E)-2-(2-ethoxy-3H-imidazo[4,5-b]pyridin-3-yl)methyl-5-[1-(5-oxo-4,5-dihydro-1,2,4-oxadiazol-3-yl)ethylidene]-10,11-dihydro-5H-dibenzo[a,d]cycloheptene]",1.52

# System: spontaneously hypertensive rats (SHR)
# Assay: Antihypertensive action by telemetry method
# Type: in vivo, rat
# Conditions: oral once a day for 4 days, 24 hr averages
# Source text: A telemetry transmitter was indwelled in the abdominal artery of spontaneously hypertensive rats (SHR), and the blood pressure and heart rate were monitored. The rats were acclimated and reared for 4 weeks or more, and only the rats with hypertension were used for the test. Before drug administration, the rats were grouped such that the blood pressure and heart rate of each rat would be of the same levels between the groups. A solvent (0.5% methylcellulose solution) and a test compound were repeatedly administered orally once a day for 4 days. The average systolic blood pressure for 24 hr, average diastolic blood pressure for 24 hr and average heart rate for 24 hr were calculated on each administration day.
row,SMILES,"antihypertensive action (blood pressure, telemetry)"
1,"CCc1nc2c(Cl)cc(C)nc2n1Cc1ccc2c(c1)CCc1ccccc1N2C(C)c1nnn[nH]1 (stereo not drawn) [Compound 25, 2-(7-chloro-2-ethyl-5-methyl-3H-imidazo[4,5-b]pyridin-3-yl)methyl-5-[1-(1H-tetrazol-5-yl)ethyl]-10,11-dihydro-5H-dibenzo[b,f]azepine]",antihypertensive action
2,"CCc1nc2c(C)cc(C)nc2n1Cc1ccc2c(c1)CCc1ccccc1C2=CC#N [Compound S15, [2-(2-ethyl-5,7-dimethyl-3H-imidazo[4,5-b]pyridin-3-yl)methyl-10,11-dihydro-5H-dibenzo[a,d]cyclohepten-5-ylidene]acetonitrile]",antihypertensive action
3,"CCc1nc2c(C)cc(C)nc2n1Cc1ccc2c(c1)CCc1ccccc1/C2=C(/C)c1nnn[nH]1 [Compound 45, (E)-2-(2-ethyl-5,7-dimethyl-3H-imidazo[4,5-b]pyridin-3-yl)methyl-5-[1-(1H-tetrazol-5-yl)ethylidene]-10,11-dihydro-5H-dibenzo[a,d]cycloheptene]",antihypertensive action
4,"C/C(=C1\c2ccc(Cn3c(C4CC4)nc4c(Cl)cccc43)cc2COc2ccccc21)c1noc(=O)[nH]1 [Compound 147, (Z)-8-(4-chloro-2-cyclopropylbenzimidazol-1-yl)methyl-11-[1-(5-oxo-4,5-dihydro-1,2,4-oxadiazol-3-yl)ethylidene]-6,11-dihydrodibenzo[b,e]oxepine]",antihypertensive action
